Patent EP1377579B1 (Aventis Pharmaceuticals Inc., priority 2000, dated 2002)
Read-outs that look alike come from different tables or passages of the source.

Assays:
cdk1/cyclin B = cdk1/cyclin B (Homo sapiens, UniProt P06493); experiment: Cyclin-dependent kinase assay, cdk1/cyclin B; conditions: CDK1 IC50, nM, Histone H1, 10 µM ATP
cdk2/cyclin E = cdk2/cyclin E (Homo sapiens, UniProt P24941); experiment: Cyclin-dependent kinase assay, cdk2/cyclin E; conditions: CDK2 IC50, nM, GST-pRb substrate, 10 µM ATP
Experimental: The insect cell (Sf9) expression is optimized for each of the CDK/cyclin pairs according to the manufacturer's protocols (Life Technologies).
The viruses are added to the cells and the culture is incubated at 27°C for the desired time. The cells are harvested by centrifugation at 3000 rpm for 10 minutes. The cells are snap frozen on dry ice and stored at - 80°C.
Cell extracts are made following a standard procedure. The cell pellet is resuspended in lysis buffer (50 mM HEPES, pH 8.0, 10 mM MgCl2, 1 mM DTT, 2.5 mM EGTA, 1 mM EDTA, 10 mM β-glycerophosphate, 1 mM sodium vanadate, 1 mM sodium fluoride, 1 x Protease inhibitor cocktail). The cells are lysed using the microfluidizer (Microfluidics) for 20 minutes. Cell debris is removed by centrifugation at 100,000 x g. The cell extracts are aliquoted in 1 ml aliquots, frozen on dry ice, and stored at -80°C.
The kinase reactions are performed following a standard procedure. The enzyme and inhibitor are diluted in kinase buffer (50 mM HEPES, pH 8.0, 10 mM MgCl2, 2.5 mM EGTA, 10 mM β-glycerophosphate, 1 mM sodium vanadate, 1 mM sodium fluoride, and 1 mM DTT) and pre-incubated for 30 minutes. The cdk2 and cdk4 enzyme activities are assayed using 500 ng of the GST-pRb substrate (see description below) in the presence of 10 µM cold ATP and 1 µCi of [γ-^33P] ATP for 30 minutes at room temperature. […] The reactions are terminated by the addition of 50 µL of 10 mM cold ATP to stop the reactions. The reactions are transferred to a pre-soaked 96-well multi-screen plate containing 30 µL of 100% TCA per well. After incubation for one hour at room temperature, the plates are washed twice with 200 µl of 20% TCA, followed by 200 µl of 10% TCA and finally with 200 µl of 5% TCA. After drying the plates at room temperature, the filter plates are placed in adapter plates (Packard) and 40 µl of Microscint-O® (Packard) is added to each well.

HL-60 Human Leukemia = experiment: HL-60 human leukemia xenograft in nude mice; assay type: in vivo; set-up: key: tumor volume = ½(a × b²) from caliper diameters, in mm^3; conditions: Table 4
In short: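 Subcutaneous HL-60 (5 x10^5 cells) or PC-3 (5 x 10^6 cells) xenografts in nude mice; ip dosing qd 5x/wk from 50–100 mm^3 tumors, at MTD and 1/3 MTD, ~3 wk (HL-60) or ~5 wk (PC-3). Caliper tumor volume ½(a x b2) twice weekly; body weight weekly.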

cdk4/cyclin D1 = cdk4/cyclin D1 (Homo sapiens, UniProt P11802); experiment: Cyclin-dependent kinase assay, cdk4/cyclin D1; assay type: biochemical; conditions: cyclin D1/cdk4; GST-pRb substrate, 10 µM ATP
MDA-MB-435 = experiment: In vitro proliferation assay (MTT), MDA-MB-435; assay type: cell-based, human; conditions: Homo sapiens
In short: (§1)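 A570 readout of DMSO-solubilized MTT formazan after 3-day compound exposure; IC50 from raw data. Cells plated 1000–2500/well and recovered overnight before dosing.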

in vivo = conditions: male, Hsd:ICR (CD-1), mouse, plasma
Experimental: (§2) Male mice are given single intravenous cassette doses of CDK inhibitor compounds.
(§3) Doses are adjusted for the weight of the individual dihydrochloride and trihydrochloride salts. The compounds are stored desiccated within a closed cabinet at room temperature before use. Dose levels are prepared on the morning of each study.
(§4) A single intravenous cassette dose (18 or 15 mg/kg free base) is administered. For each compound, this is equivalent to a dose of approx. 3 mg/kg free base. […] The dose is administered at a volume of 10 ml/kg (total volume of approximately 0.25 ml/animal).
(§5) Male mice (Hsd:ICR (CD-1® SD®), Harlan), each weighing approximately 20 - 30 g at the start of the study. […] Water is available ad libitum throughout the study.
(§6) Dose Administration and Sample Collection: • A single cassette dose of 5-6 compounds is administered by bolus injection into the tail vein over a 10 - 15-second period. […] Whole blood (approximately 0.6 ml/sample) is obtained by cardiac puncture and transferred to 3 ml glass tubes containing 45 U sodium heparin.
(§7) Sample Processing: Plasma: Whole blood is centrifuged at approximately 3,200 rpm for 10 min at approximately 5°C and the plasma (approx. 0.3 ml/sample) is transferred to chilled plastic vials and stored at approx. -70°C until bioanalysis.
(§8) Sample Analysis: Concentrations of each test article in plasma are quantitated by a non-validated method based on LC/MS using the following protocol.
(§9) Samples are removed from the freezer, allowed to thaw at room temperature, and vortexed to insure complete homogenization prior to sample manipulation. Samples are then prepared according to the following scheme: • 1. transfer 48 µL of plasma (blank mouse sample) into a 12 x 75 mm test tube. • 2. add 12 µL of working standard to the blank plasma for standard curve preparation. • 3. […] Inject 25 µL on LC/MS.
(§10) Data Analysis: Concentrations of Compounds in plasma of individual animals are determined by bioanalytics. […] Statistical analyses are limited to simple expressions of variation (mean and standard deviation). The plasma AUC (area-under-curve) is determined by the linear trapezoidal rule. […] All PK parameters are determined by noncompartmental methods using WinNonlin version 3.0 (Pharsight Corp). Plasma vs. time profiles are prepared by Sigma Plot (SPSS, Inc.).

[1] = Red blood cell binding, mouse whole blood; assay type: in vitro ADME; conditions: 30 minutes at 37°C, 500 ng/ml
Experimental: Compounds, including one positive control, are assessed for red blood cell (RBC) uptake, using a modified procedure based on the protocol reported in Sun, J.X.S., et al. High-performance liquid chromatographic analysis, plasma protein binding and red blood cell partitioning of phenprobamate. Biopharmaceutics and Drug Disposition, 8 (1987) 341-351.
Briefly, RBC uptake is evaluated by comparison of the levels in spiked plasma (n=3) and plasma isolated from spiked whole blood (n=3). Compounds are incubated with human and mouse whole blood, respectively, for 30 minutes at 37°C using a nominal concentration of 500 ng/ml. Following centrifugation, the plasma is removed and submitted for analysis. Each compound is also spiked into blank plasma at a nominal concentration of 500 ng/ml, and submitted for analysis. Levels in the two plasma samples (Cp' and Cp in the equation below) and the blood hematocrit are used to determine the red blood cell to plasma ratio (Crbc/Cp). (Crbc)/(Cp) = (Cpʹ)/(Cp•H)-((1-H))/(H) [formula] In equation 1, Cp' is the level of drug in the spiked "blank" plasma, Cp is the level of drug in the plasma of spiked whole blood, and H is the hematocrit. The hematocrit values are determined as 0.4 for human whole blood and 0.41 for mouse whole blood. The samples are analyzed with ESI LC/MS, using positive ion detection with an internal standard.
The red blood cell to plasma ratio is determined for each compound using equation 1. Tables 6 and 7 summarize the respective mean Crbc/Cp values and standard deviations for mouse and human whole blood, respectively, in descending order based on the red blood cell to plasma ratio, where"*" denotes Positive Control, and "ND" denotes Not Determined. MDL 108552 is included as a positive control for red blood cell uptake. Table 6. Red Blood Cell to Plasma Ratio for compounds in mouse whole blood

PC-3 = experiment: In vitro proliferation assay (MTT), PC-3; assay type: cell-based, human; conditions: Homo sapiens
In short: as §1

[2] = Bioavailability experiment in mice given single intravenous cassette doses; conditions: for Cls: mice plasma, single intravenous cassette dose; for Conc. in plasma / Conc. (ng/ml) in plasma: mice; for Conc. in plasma: single 15 mg/kg intravenous cassette dose (3 mg/kg/compound), BLQ = below assay quantification limit (approximately 1 ng/ml); for Conc. (ng/ml) in plasma: Cassette #1, single 18 mg/kg intravenous cassette dose, 24 h, BLQ = below assay quantification limit
Experimental: as §2, §3, §4, §5, §6, §7, §8, §9, §10

[3] = MDA-MB-435, read-out: MB-435 Breast (IC50 µM)
[4] = PC-3, read-out: PC-3 Prostate (IC50 µM)
[5] = 3 mg/kg/compound (15 mg/kg Total Dose), Cassette #4
[6] = MDA-MB-435, MTT assay, value (SD, n) where given, read-out: MB-435 Breast (IC50 µM)
[7] = PC-3, MTT assay, value (SD, n) where given, read-out: PC-3 Prostate (IC50 µM)
[8] = 3 mg/kg/compound (18 mg/kg Total Dose), Cassette #1

cdk4/cyclin D1, sequence (P11802 whole entry): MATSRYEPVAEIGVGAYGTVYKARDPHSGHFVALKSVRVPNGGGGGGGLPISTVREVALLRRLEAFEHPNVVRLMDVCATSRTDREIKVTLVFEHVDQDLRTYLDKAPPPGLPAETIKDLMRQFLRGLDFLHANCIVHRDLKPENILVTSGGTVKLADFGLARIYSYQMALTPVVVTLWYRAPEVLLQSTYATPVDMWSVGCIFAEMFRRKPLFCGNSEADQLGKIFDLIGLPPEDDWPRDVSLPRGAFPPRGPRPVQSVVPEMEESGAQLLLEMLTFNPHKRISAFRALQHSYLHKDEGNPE
cdk4/cyclin D1, sequence (P24385 whole entry partner): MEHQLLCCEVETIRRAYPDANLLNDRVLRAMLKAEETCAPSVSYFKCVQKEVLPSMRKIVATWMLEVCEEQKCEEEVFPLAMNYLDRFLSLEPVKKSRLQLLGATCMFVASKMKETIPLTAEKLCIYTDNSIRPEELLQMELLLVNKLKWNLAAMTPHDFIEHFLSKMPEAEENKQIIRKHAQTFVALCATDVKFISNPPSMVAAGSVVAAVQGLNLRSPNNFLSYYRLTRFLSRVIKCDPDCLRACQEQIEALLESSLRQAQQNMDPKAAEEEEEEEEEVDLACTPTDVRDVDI
cdk1/cyclin B, sequence (P06493 whole entry): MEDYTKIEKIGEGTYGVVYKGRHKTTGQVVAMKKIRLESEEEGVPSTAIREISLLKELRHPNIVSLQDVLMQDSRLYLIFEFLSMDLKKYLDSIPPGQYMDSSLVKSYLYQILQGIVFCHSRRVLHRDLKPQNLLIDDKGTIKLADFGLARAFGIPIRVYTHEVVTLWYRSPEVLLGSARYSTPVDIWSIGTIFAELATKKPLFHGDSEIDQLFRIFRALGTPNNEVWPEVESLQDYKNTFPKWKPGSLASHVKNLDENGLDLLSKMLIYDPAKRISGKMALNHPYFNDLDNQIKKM
cdk1/cyclin B, sequence (P14635 whole entry partner): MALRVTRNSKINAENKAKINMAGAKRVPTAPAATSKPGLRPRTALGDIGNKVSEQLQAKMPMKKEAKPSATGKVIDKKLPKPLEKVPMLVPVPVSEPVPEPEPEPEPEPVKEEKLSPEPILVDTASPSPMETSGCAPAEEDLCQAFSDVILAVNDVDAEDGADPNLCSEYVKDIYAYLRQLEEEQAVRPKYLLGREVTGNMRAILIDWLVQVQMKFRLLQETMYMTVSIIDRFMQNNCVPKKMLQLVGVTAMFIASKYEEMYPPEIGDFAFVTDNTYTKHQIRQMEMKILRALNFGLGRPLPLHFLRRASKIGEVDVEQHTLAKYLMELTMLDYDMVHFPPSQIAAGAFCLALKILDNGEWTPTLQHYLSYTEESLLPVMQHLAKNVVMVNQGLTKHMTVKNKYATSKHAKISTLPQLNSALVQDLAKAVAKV

Structure (SMILES) | IC50 (cdk1/cyclin B) [nM] | IC50 (cdk2/cyclin E) [nM] | HL60 Mean Vol. ± SD (HL-60 Human Leukemia; dose 1 mg/kg ip) | HL60 Mean Vol. ± SD (HL-60 Human Leukemia; dose 3 mg/kg ip) | IC50 (cdk4/cyclin D1) [nM] | IC50 (MDA-MB-435; [3]) [µM] | concentration at 0.083 h (in vivo; intravenous, 3 mg/kg) [ng/mL] | concentration at 0.25 h (in vivo; intravenous, 3 mg/kg) [ng/mL] | concentration at 0.5 h (in vivo; intravenous, 3 mg/kg) [ng/mL] | concentration at 1 h (in vivo; intravenous, 3 mg/kg) [ng/mL] | concentration at 3 h (in vivo; intravenous, 3 mg/kg) [ng/mL] | concentration at 6 h (in vivo; intravenous, 3 mg/kg) [ng/mL] | concentration at 8 h (in vivo; intravenous, 3 mg/kg) [ng/mL] | AUC(0-inf) (in vivo; iv, 3 mg/kg) [ng·h/mL] | Cmax (in vivo; iv, 3 mg/kg) [ng/mL] | half-life (in vivo; iv, 3 mg/kg) [h] | Mean Red Blood Cell to Plasma Ratio [1] | IC50 (PC-3; [4]) [µM] | IC50 (MDA-MB-435; [6]) [µM] | IC50 (PC-3; [7]) [µM] | other results
Cl.Cl.N[C@H]1CC[C@H](Nc2nc(NC3CCN(C(=O)Oc4ccc(Cl)cc4)CC3)c3ncn(C4CCCC4)c3n2)CC1 [compound 88, trans-4-[2-(4-Amino-cyclohexylamino)-9-cyclopentyl-9H-purin-6-ylamino]-piperidine-1-carboxylic acid 4-chloro-phenyl ester dihydrochloride] | 35 | 7 | 4415 ± 2740 | 2624 ± 2108 | 204 | 0.02 | 1480 ± 272 | 421 ± 49.9 | 150 ± 5.9 | 74.6 ± 16.1 | 24.8 ± 7.4 | 8.9 ± 1.6 | 5.4 ± 2 | 642 | 1480 | 1.9 | 3.5 | 0.1 |  |  | Cls ([2]; 3 mg/kg/compound (15 mg/kg Total Dose), Cassette #3): 77.9 mL/min/kg; Conc. in plasma ([2]; Cassette #3, 24 h): BLQ
Cl.Cl.N[C@H]1CC[C@H](Nc2nc(NC3CCN(C(=O)Oc4ccc([N+](=O)[O-])cc4)CC3)c3ncn(C4CCCC4)c3n2)CC1 [compound 89, trans-4-[2-(4-Amino-cyclohexylamino)-9-cyclopentyl-9H-purin-6-ylamino]-piperidine-1-carboxylic acid 4-nitro-phenyl ester dihydrochloride] | 20 | 42 | 2444 ± 2291 | 4278 ± 2801 | 65 | 0.06 | 642 ± 49.5 | 303 ± 34.3 | 142 ± 2.7 | 52.4 ± 4.2 | 17 ± 4.7 | 3.7 ± 1 | 3.8 ± 0.5 | 366 | 642 | 1.8 | 4.7 | 0.06 |  |  | Cls [2, 5]: 136.5 mL/min/kg; Conc. in plasma ([2]; Cassette #4, 24 h): BLQ
Cl.Cl.N[C@H]1CC[C@H](Nc2nc(NC3CCN(S(=O)(=O)c4ccc(F)cc4)CC3)c3ncn(C4CCCC4)c3n2)CC1 [compound 106, trans-N^2-(4-Amino-cyclohexyl)-9-cyclopentyl-N^6-[1-(4-fluoro-benzenesulfonyl)-piperidin-4-yl]-9H-purine-2,6-diamine dihydrochloride] | 8 | 8 | 4271 ± 3851 | 7368 ± 2592 | 15 |  | 765 ± 64.3 | 397 ± 59.2 | 185 ± 13 | 63.3 ± 0.5 | 21.8 ± 6.1 | 4.3 ± 0.8 |  | 440 | 765 | 1.3 | 3.0 |  | 0.12 | 0.82 | Cls [2, 5]: 113.7 mL/min/kg; Conc. in plasma ([2]; Cassette #4, 8 h, Mean ± SD): BLQ^a; Conc. in plasma ([2]; Cassette #4, 24 h): BLQ
Cl.Cl.N#Cc1ccc(S(=O)(=O)N2CCC(Nc3nc(N[C@H]4CC[C@H](N)CC4)nc4c3ncn4C3CCCC3)CC2)cc1 [compound 109, trans-N^2-(4-Amino-cyclohexyl)-9-cyclopentyl-N^6-[1-(4-cyano-benzenesulfonyl)-piperidin-4-yl]-9H-purine-2,6-diamine dihydrochloride] | 18 | 45 |  | 2597 ± 2240 | 12 |  |  |  |  |  |  |  |  | 1110 | 1690 | 2 | 2.4 |  | 0.11 | 0.32 | HL60 Mean Vol. ± SD (HL-60 Human Leukemia; dose 10 mg/kg ip): 3466 ± 3730; concentration at 0.083 h (in vivo; iv, 18 mg/kg): 1690 ± 224 ng/mL; concentration at 0.25 h (in vivo; iv, 18 mg/kg): 915 ± 15.2 ng/mL; concentration at 0.5 h (in vivo; iv, 18 mg/kg): 514 ± 45.2 ng/mL; concentration at 1 h (in vivo; iv, 18 mg/kg): 238 ± 38.7 ng/mL; concentration at 3 h (in vivo; iv, 18 mg/kg): 30.1 ± 8.5 ng/mL; concentration at 6 h (in vivo; iv, 18 mg/kg): 9.5 ± 1.8 ng/mL; concentration at 8 h (in vivo; iv, 18 mg/kg): 5.5 ± 0.9 ng/mL; Conc. (ng/ml) in plasma [2]: BLQ; Cls [2, 8]: 45.1 mL/min/kg
COC(=O)c1ccccc1S(=O)(=O)N1CCC(Nc2nc(N[C@H]3CC[C@H](N)CC3)nc3c2ncn3C2CCCC2)CC1.Cl.Cl [compound 111, trans-2-{4-[2-(4-Amino-cyclohexylamino)-9-cyclopentyl-9H-purin-6-ylamino]-piperidine-1-sulfonyl}-benzoic acid methyl ester dihydrochloride] | 17 | 9 |  | 3798 ± 2431 | 51 |  |  |  |  |  |  |  |  | 1460 | 2450 | 2 | 2.2 |  | 0.43 | 0.76 | HL60 Mean Vol. ± SD (HL-60 Human Leukemia; dose 10 mg/kg ip): 2387 ± 1282; concentration at 0.083 h (in vivo; iv, 18 mg/kg): 2450 ± 287 ng/mL; concentration at 0.25 h (in vivo; iv, 18 mg/kg): 1090 ± 129 ng/mL; concentration at 0.5 h (in vivo; iv, 18 mg/kg): 588 ± 29.3 ng/mL; concentration at 1 h (in vivo; iv, 18 mg/kg): 335 ± 81.3 ng/mL; concentration at 3 h (in vivo; iv, 18 mg/kg): 33.8 ± 6.8 ng/mL; concentration at 6 h (in vivo; iv, 18 mg/kg): 10.9 ± 3 ng/mL; concentration at 8 h (in vivo; iv, 18 mg/kg): 6 ± 2 ng/mL; Conc. (ng/ml) in plasma [2]: BLQ; Cls [2, 8]: 34.2 mL/min/kg
